Tests used:
[1] = test system: skin on the ventral side of the forearm of healthy volunteers; assay: Evaluation of the moisturization of the skin by electrical conductance (Dermodiag), randomized double-blind clinical study; assay type: in vivo, human; conditions: for moisturization of the skin vs placebo (Wilcoxon test): 12 months oral 50 mg daily; for Conductance: 50 mg daily oral
Protocol: (§1) The evaluation was carried out using a randomized double-blind clinical study among 280 individuals (140 men and 140 women). The inclusion criteria was as follows: healthy volunteers, of both sexes, free of any severe pathological condition and 60 to 80 years old.
(§2) The treatment consisted, for 12 months, of a daily dose of 50 mg of DHEA, taken in the morning, in the form of a breakable tablet, for half of the individuals, or of a placebo for the other half of the individuals.
The moisturization of the skin on the ventral side of the forearm is measured, blind, at the start of treatment (T0) and at the end of treatment (T12), by the same clinician, using a Dermodiag®, which is a device described in patent U.S. Pat. No. 5,001,436. The characteristics of the device are as follows: outlet impedance: 1.4 kOhms and working frequency 10 MHz. The method used is that described by J. L. Lévêque, Soc. Cosmet. Chem. (1983), 34, 419-428.
This device makes it possible to evaluate the state of moisturization (water content of the superficial layers of the epidermis) by measuring electrical conductance. The conductance is measured using an electrode applied to the skin for 10 seconds. The conductance value is the result of the mean of 6 individual measurements per measurement time.
(§3) The statistical analysis is performed using the Wilcoxon test.

[2] = test system: sebaceous glands of the skin of healthy volunteers; assay: Evaluation of the production of sebum (Sebutape patches, number of spots by image analysis), randomized double-blind clinical study; assay type: in vivo, human; conditions: for variation in seborrhea vs placebo (Wilcoxon test): 12 months oral 50 mg daily; for Number of spots: 50 mg daily oral
Protocol: as §1, §2
The production of sebum is measured at the start of treatment (T0) and at the end of treatment (T12) according to the techniques described by A. M. Kligman et al., J. Soc. Cosmet. Chem. (1986), 37, 369-373 and by K. M. Nordstrom et al., J. Invest. Dermatol. (1986), 87, 260-264.
White adhesive microporous patches (Sebutape®, Cuderm Corporation, Dallas, Tex., USA) described in U.S. Pat. No. 4,532,937 are used; the patches are applied in a standardized manner to the skin, which has been wiped 10 times, beforehand, with cotton soaked in 70° alcohol in order to remove any fat. The lipids which are passively absorbed onto the patches are visualized by the presence of transparent spots, themselves measured by image analysis.
Each spot represents an active sebaceous gland.
as §3

[3] = men, T0 (start of treatment), DHEA group
[4] = men, T12 (end of 12 months treatment)
[5] = women, T0 (start of treatment), DHEA group
[6] = women, T12 (end of 12 months treatment)

`C[C@]12CC[C@H](O)CC1=CC[C@@H]1[C@@H]2CC[C@]2(C)C(=O)CC[C@@H]12` [DHEA, Dehydroepiandrosterone] was tested, and the “moisturization of the skin vs placebo (Wilcoxon test)” value ([1]; men, p=0.03) was “significant improvement”, the Conductance [1, 3] was 69 and the Conductance [1, 4] was 86. For the same compound, the “improvement of the moisturization of the skin, measured by conductance” value ([1]; men, treated group, T12 vs T0, 50 mg daily oral (placebo +21%, p=0.03)) was 26%, the “moisturization of the skin vs placebo (Wilcoxon test)” value ([1]; women, p=0.44) was “without significant variation in the moisturization of the skin” and the Conductance [1, 5] was 64. The Conductance [1, 6] was 84, the “variation in seborrhea vs placebo (Wilcoxon test)” value ([2]; men, p=0.46) was “no significant variation in seborrhea” and the Number of spots [2, 3] was 55. For the same compound, the Number of spots [2, 4] was 140, the “variation in seborrhea vs placebo (Wilcoxon test)” value ([2]; women, p=0.0001) was “significant variation in seborrhea” and the Number of spots [2, 5] was 2. The Number of spots [2, 6] was 56.
